Reference: patent US10160753B2, “Indazole compounds as IRAK4 inhibitors” (Aurigene Discovery Technologies Limited, priority 2014, dated 2018)
Where a name gives a salt, the structure may show the parent alone.

Molecular target: T1, recombinant IRAK-4 kinase (Homo sapiens, UniProt Q9NWZ3)
T1 construct: purchased Millipore, USA
T1 sequence (Q9NWZ3 1-460): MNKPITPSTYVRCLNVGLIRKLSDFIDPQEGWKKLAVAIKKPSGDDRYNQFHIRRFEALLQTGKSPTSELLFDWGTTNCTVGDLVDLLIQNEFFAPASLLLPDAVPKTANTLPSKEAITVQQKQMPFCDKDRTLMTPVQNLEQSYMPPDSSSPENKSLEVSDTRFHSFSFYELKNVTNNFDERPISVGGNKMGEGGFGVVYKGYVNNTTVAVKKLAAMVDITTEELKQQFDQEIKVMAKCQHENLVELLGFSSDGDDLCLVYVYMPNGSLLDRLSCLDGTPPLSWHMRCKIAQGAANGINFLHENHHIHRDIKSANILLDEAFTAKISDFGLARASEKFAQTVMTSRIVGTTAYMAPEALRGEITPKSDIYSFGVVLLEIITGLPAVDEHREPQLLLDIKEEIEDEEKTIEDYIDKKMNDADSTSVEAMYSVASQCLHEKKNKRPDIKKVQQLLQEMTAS
Experiment: IRAK-4 Biochemical Assay (TR-FRET)
Details: 30 min pre-incubation, 100 nM Biotin Histone H3, 20 μM ATP, read-out: IC50 values for IRAK4 activity

Row | IC50 [nM] | Compound
1 | < 50 | COCCn1nc(C)c2cc(NC(=O)c3coc(-c4ccnc(C)c4)n3)c(N3CCC(O)CC3)cc21 [Example 116, N-(6-(4-hydroxypiperidin-1-yl)-1-(2-methoxyethyl)-3-methyl-1H-indazol-5-yl)-2-(2-methylpyridin-4-yl)oxazole-4-carboxamide]
2 | 50 to 100 | Cc1cc(-c2nc(C(=O)Nc3cc4cnn(C5CC5)c4cc3C3CC3)co2)ccn1 [Example 36, N-(1,6-dicyclopropyl-1H-indazol-5-yl)-2-(2-methylpyridin-4-yl)oxazole-4-carboxamide hydrochloride]
3 | < 50 | Cn1cc2cc(NC(=O)c3cccc(N4CC[C@H](O)C4)n3)c(C3CC3)cc2n1 [Example 49, (S)—N-(6-cyclopropyl-2-methyl-2H-indazol-5-yl)-6-(3-hydroxypyrrolidin-1-yl)picolinamide]
4 | < 50 | Cc1cc(-c2nc(C(=O)Nc3cc4cn(C)nc4cc3N3CC(O)C3)co2)ccn1 [Example 61, N-(6-(3-hydroxyazetidin-1-yl)-2-methyl-2H-indazol-5-yl)-2-(2-methylpyridin-4-yl)oxazole-4-carboxamide]
